Test results: patent US6472413B2, “Heteroarylacryloylaminoalkyl-substituted benzenesulfonamide derivatives, their preparation, their use and pharmaceutical preparations comprising them” (Adventis Pharma Deutschland GmbH, priority 2000, dated 2002)

Legend:
hSUR1/hKir6.2 = hSUR1/hKir6.2 (Homo sapiens, UniProt Q09428+Q14654); experiment: Action on hSUR1/hKir6.2-transfected CHO cells (hypoglycemic action), membrane potential by DIBAC4 fluorescence (FLIPR); type: cell-based; details: concentration 10 μM; CHO cells activated with diaxozide; mean of at least 4 experiments
From the text: Action on hSUR1/hKir6.2-transfected CHO Cells (Hypoglycemic Action)
The target organ of these compounds is the β cell of the pancreas where they block ATP-sensitive potassium channels and produce a release of the hypoglycemic hormone insulin by influencing the electrical potential of the cell membrane.
The extent of this depolarization of the cell membrane, which is caused by the compounds according to the invention, was investigated on CHO cells that were transfected with the cloned components of human pancreatic ATP-sensitive potassium channels, hSUR1, and hKir6.2, and activated by pretreatment with diaxozide, an opener of ATP-sensitive potassium channels. The potency of a compound with respect to the membrane potential of these transfected and activated CHO cells is a measure of the hypoglycemic potential of this compound.
On the day of measurement, the microtiter plates were washed three times with PBS (physiological buffer solution). In the last washing step, 90 μl remained in each well. The cells were then loaded with the fluorescent dye DIBAC4 (Molecular Probes, Portland, Oreg., USA) by addition of 90 μl of a 10-micromolar solution of DIBAC4 in PBS and of 90 μl of a 400 micromolar solution of diaxozide in PBS to each well. After an incubation time of 30 min at 37° C., the microtiter plates were then transferred to a fluorescent microtiter plate reader (FLIPR; Molecular Devices, Sunnyvale, Calif., USA). The cells were stimulated by means of an argon laser (Innova 90; Coherent, Santa Clara, Calif., USA) at a wavelength of 488 nm and the fluorescence emission was measured by means of a CCD camera. The measurement of the membrane potential began after 4 min by addition of 20 μl of a solution of the test compound or of the control solution to each well, the resulting fluorescence emission being measured every 20 seconds for a period of 20 min. The data shown are mean values of at least 4 experiments.

[1] = test system: papillary muscle of the guinea pig; experiment: Action potential duration on the papillary muscle of the guinea pig (relengthening of hypoxia-shortened APD90); type: cell-based; details: concentration 2 μM, 60 min after addition, percentage in relation to the shortening caused by hypoxia
From the text: Action Potential Duration on the Papillary Muscle of the Guinea Pig
ATP deficiency states, observed during ischemia in the cardiac muscle cell, lead to a shortening of the action potential duration (ATP=adenosine triphosphate). They are regarded as one of the causes of so-called reentry arrhythmias, which can cause sudden cardiac death. The opening of ATP-sensitive potassium channels by the lowering of the ATP level is regarded as the cause of this. For the measurement of the action potential on the papillary muscle of the guinea pig a standard microelectrode technique was employed.
Guinea pigs of both sexes were killed by a blow to the head, the hearts were removed, and the papillary muscles were separated out and suspended in an organ bath. The organ bath was rinsed with Ringer's solution (136 mmol/l of NaCl, 3.3 mmol/l of KCl, 2.5 mmol/l of CaCl2, 1.2 mmol/l of KH2PO4, 1.1 mmol/l of MgSO4, 5.0 mmol/l of glucose, 10.0 mmol/l of 1-(2-hydroxyethyl)piperazine-4-(2-ethanesulfonic acid) (HEPES), pH adjusted to 7.4 with NaOH) and aerated with 100% oxygen at a temperature of 37° C. The muscle was stimulated with square-wave pulses of 1 V and 1 ms duration and a frequency of 1 Hz by means of an electrode. The action potential was derived and recorded by means of a glass microelectrode inserted intracellularly, which was filled with 3 mol/l of KCl solution. The compound to be tested was added to the Ringer's solution in a concentration of 2 μmol/l. The action potential was amplified using an amplifier from Hugo Sachs (March-Hugstetten, Germany) and stored and analyzed by means of a computer. The duration of the action potential was determined at a degree of repolarization of 90% (APD90). After an equilibration time of 30 min, the action potential shortening was produced by rinsing the papillary muscle with a hypoxic NaCl solution. The glucose was removed here, the HEPES buffer replaced by PIPES buffer (piperazine-1,4-bis(2-ethanesulfonic acid)), the pH was adjusted to 6.5, and the aeration was carried out using 100% nitrogen. After a time of 60 min, this led to a marked shortening of the APD90. After this time, the test compound was added and the relengthening of the action potential recorded after a further 60 min. The compound-caused relengthening of the APD90 was calculated as a percentage, in relation to the shortening caused by hypoxia. The test compounds were added to the bath solution as stock solution in propanediol.
The following relengthenings of the APD90 values were observed.

[2] = test system: chloroform-induced ventricular fibrillation in the mouse; experiment: Chloroform-induced ventricular fibrillation in the mouse (action in the case of vagal dysfunction); type: in vivo; details: 3 mg/kg i.p., 30 min before chloroform anesthesia, percentage of mice with ventricular fibrillation, untreated control 100%
From the text: Chloroform-induced Ventricular Fibrillation in the Mouse (Action in the Case of Vagal Dysfunction)
Hypoactivity of the vagal nervous system leads to hyperactivity of the sympathetic nervous system. Damages to health that result from an inequilibrium of the autonomic nervous system when the dysfunction affects the heart include the weakening of the myocardial contractile force and fatal cardiac arrhythmias such as ventricular fibrillation. The action of the test compounds was investigated in the model of chloroform-induced ventricular fibrillation in the mouse (see J. W. Lawson, Antiarrhythmic activity of some isoquinoline derivatives determined by a rapid screening procedure in the mouse; J. Pharmacol. Exp. Ther. 160 (1968) 22).
The test compound was dissolved in a mixture of dimethyl sulfoxide (DMSO) and 10 percent sodium hydrogencarbonate solution and administered intraperitoneally (i.p.). The dose was 3 mg/kg. 30 min later, the mouse was anesthetized with chloroform in a beaker. As soon as respiratory arrest had occurred under deep anesthesia (toxic stage of anesthesia), the thorax of the animal was opened using a pair of scissors and the heartbeat was visually inspected. It can be determined here at a glance whether the heart is beating, fibrillating, or has stopped. The respiratory arrest induced by chloroform leads, via an absolute anoxia (oxygen deficiency) in combination with a direct stimulating action of chloroform on the sympathetic nervous system, to a strong stimulation of the sympathetic nervous system, which in turn, and in combination with the energy deficiency caused by oxygen deficiency, leads in the heart to the fatal arrhythmia, ventricular fibrillation. This toxic chloroform anesthesia led to ventricular fibrillation in 100% of the untreated mice (control). The percentage proportion of the mice with ventricular fibrillation in the individual test groups (consisting of n animals) is indicated as the fibrillation ratio.
The following fibrillation ratios were observed.

Chain of hSUR1/hKir6.2 (Q09428 whole entry): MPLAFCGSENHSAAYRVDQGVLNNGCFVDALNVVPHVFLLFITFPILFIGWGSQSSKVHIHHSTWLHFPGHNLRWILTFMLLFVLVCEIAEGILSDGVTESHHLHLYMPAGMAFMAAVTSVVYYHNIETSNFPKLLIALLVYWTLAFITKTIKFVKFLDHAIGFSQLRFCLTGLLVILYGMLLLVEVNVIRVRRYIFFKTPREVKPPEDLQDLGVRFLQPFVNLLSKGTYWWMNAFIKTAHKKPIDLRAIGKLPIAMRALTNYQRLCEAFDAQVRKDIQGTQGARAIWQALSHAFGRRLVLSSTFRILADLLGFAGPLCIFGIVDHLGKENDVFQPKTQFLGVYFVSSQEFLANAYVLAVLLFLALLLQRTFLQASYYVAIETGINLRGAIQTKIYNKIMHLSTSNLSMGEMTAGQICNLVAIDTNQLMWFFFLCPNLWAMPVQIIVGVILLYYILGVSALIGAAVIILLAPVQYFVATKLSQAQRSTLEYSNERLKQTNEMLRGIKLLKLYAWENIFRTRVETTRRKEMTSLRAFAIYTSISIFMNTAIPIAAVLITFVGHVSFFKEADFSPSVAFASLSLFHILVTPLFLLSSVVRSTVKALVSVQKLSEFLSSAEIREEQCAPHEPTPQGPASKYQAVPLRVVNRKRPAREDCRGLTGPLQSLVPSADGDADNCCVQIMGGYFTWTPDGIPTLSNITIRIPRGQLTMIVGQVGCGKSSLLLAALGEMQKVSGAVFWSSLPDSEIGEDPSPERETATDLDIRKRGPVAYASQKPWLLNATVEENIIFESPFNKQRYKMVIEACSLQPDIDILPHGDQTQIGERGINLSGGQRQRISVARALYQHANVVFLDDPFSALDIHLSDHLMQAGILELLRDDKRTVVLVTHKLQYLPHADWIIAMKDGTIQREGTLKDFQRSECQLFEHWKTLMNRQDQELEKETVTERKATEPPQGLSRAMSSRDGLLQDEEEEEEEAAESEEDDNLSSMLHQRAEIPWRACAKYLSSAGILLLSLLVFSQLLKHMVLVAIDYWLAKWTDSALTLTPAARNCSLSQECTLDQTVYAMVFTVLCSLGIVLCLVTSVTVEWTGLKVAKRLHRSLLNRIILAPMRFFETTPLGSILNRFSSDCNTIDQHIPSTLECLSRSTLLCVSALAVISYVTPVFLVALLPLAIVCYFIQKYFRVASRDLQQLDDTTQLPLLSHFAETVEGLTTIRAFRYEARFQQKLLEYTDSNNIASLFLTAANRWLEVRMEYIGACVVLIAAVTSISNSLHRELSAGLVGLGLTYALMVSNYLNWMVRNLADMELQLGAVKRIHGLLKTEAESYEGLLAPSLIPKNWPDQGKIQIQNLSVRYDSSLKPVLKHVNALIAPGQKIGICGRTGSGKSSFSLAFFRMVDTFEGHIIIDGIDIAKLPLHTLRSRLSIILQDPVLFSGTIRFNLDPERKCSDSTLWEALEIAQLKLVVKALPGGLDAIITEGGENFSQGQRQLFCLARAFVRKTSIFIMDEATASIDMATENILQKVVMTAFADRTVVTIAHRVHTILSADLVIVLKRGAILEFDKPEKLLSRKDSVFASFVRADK
Chain of hSUR1/hKir6.2 (Q14654 whole entry): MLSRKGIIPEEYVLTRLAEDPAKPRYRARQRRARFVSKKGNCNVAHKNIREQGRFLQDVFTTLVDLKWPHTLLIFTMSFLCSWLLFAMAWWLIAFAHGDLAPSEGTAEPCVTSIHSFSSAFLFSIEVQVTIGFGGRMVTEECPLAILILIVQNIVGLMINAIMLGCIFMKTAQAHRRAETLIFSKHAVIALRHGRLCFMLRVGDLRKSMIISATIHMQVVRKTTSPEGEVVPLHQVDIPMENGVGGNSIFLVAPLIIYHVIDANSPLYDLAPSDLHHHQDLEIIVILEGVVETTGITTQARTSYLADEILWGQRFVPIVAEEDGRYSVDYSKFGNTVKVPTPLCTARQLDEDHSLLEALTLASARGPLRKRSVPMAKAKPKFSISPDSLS

Row | SMILES | melting point [°C] | Blockade hSUR1/hKiR6.2 (hSUR1/hKir6.2) [%] | Relengthening of the APD90 shortened by hypoxia [1] [%] | Fibrillation ratio (in %) [2] [%]
1 | CNC(=S)NS(=O)(=O)c1cc(CCNC(=O)/C=C/c2cccs2)ccc1OCC1CCCO1 (stereo not drawn) [Example 14, 1-[5-(2-(trans-3-(2-Thienyl)acryloylamino)ethyl)-2-(tetrahydrofuran-2-ylmethoxy)phenylsulfonyl]-3-methyl-thiourea] | 78 | – | – | –
2 | CNC(=O)NS(=O)(=O)c1cc(CCNC(=O)/C=C/c2cccs2)ccc1OCCOC [Example 7, 1-[5-(2-(trans-3-(2-Thienyl)acryloylamino)ethyl)-2-(2-methoxyethoxy)phenylsulfonyl]-3-methyl-urea] | – | 8.1 | 39 | 80
3 | CCOCCOc1ccc(CCNC(=O)/C=C/c2cccs2)cc1S(=O)(=O)NC(=S)NC [Example 10, 1-[5-(2-(trans-3-(2-Thienyl)acryloylamino)ethyl)-2-(2-ethoxyethoxy)phenylsulfonyl]-3-methyl-thiourea] | – | – | 50 | –
4 | CNC(=S)NS(=O)(=O)c1cc(CCNC(=O)/C=C/c2cccs2)ccc1OCCOC [Example 6, 1-[5-(2-(trans-3-(2-Thienyl)acryloylamino)ethyl)-2-(2-methoxyethoxy)phenylsulfonyl]-3-methyl-thiourea] | 152 | – | – | –
5 | CNC(=S)NS(=O)(=O)c1cc(CCNC(=O)/C=C/c2cccs2)ccc1OC [Example 1, 1-[5-(2-(trans-3-(2-Thienyl)acryloylamino)ethyl)-2-methoxyphenylsulfonyl]-3-methyl-thiourea] | – | 30.7 | 33 | –
6 | CNC(=S)NS(=O)(=O)c1cc(CCNC(=O)/C=C/c2cccs2)ccc1OCCOC(F)(F)F [Example 16, 1-[5-(2-(trans-3-(2-Thienyl)acryloylamino)ethyl)-2-(2-(trifluoromethoxy)ethoxy)phenylsulfonyl]-3-methyl-thiourea] | 161 to 163 | – | – | –
7 | CCOc1ccc(CCNC(=O)/C=C/c2cccs2)cc1S(=O)(=O)NC(=S)NC [Example 9, 1-[5-(2-(trans-3-(2-Thienyl)acryloylamino)ethyl)-2-ethoxyphenylsulfonyl]-3-methyl-thiourea] | 74 | – | – | –
8 | COCCOc1ccc(CCNC(=O)/C=C/c2cccs2)cc1S(=O)(=O)NC(=S)NC(C)C [Example 8, 1-[5-(2-(trans-3-(2-Thienyl)acryloylamino)ethyl)-2-(2-methoxyethoxy)phenylsulfonyl]-3-isopropyl-thiourea] | 101 | – | – | –
9 | CNC(=S)NS(=O)(=O)c1cc(CCNC(=O)/C=C/c2cccs2)ccc1-c1ccco1 [Example 17, 1-[5-(2-(trans-3-(2-Thienyl)acryloylamino)ethyl)-2-(2-furyl)phenylsulfonyl]-3-methyl-thiourea] | 175 to 176 | – | – | –
10 | CNC(=S)NS(=O)(=O)c1cc(CCNC(=O)/C=C/c2cccs2)ccc1OCC1CCCCO1 (stereo not drawn) [Example 15, 1-[5-(2-(trans-3-(2-Thienyl)acryloylamino)ethyl)-2-(tetrahydropyran-2-ylmethoxy)phenylsulfonyl]-3-methyl-thiourea] | 80 | – | – | –
11 | CNC(=S)NS(=O)(=O)c1cc(CCNC(=O)/C=C/c2ccccn2)ccc1OC [Example 18, 1-[5-(2-(trans-3-(2-Pyridyl)acryloylamino)ethyl)-2-methoxyphenylsulfonyl]-3-methyl-thiourea] | 188 | – | – | –
12 | COCCOc1ccc(CCNC(=O)/C=C/c2ccccn2)cc1S(=O)(=O)NC(=S)NC(C)C [Example 20, 1-[5-(2-(trans-3-(2-Pyridyl)acryloylamino)ethyl)-2-(2-methoxyethoxy)phenylsulfonyl]-3-isopropyl-thiourea] | – | 5.9 | 26 | 80
13 | CCOCCOc1ccc(CCNC(=O)/C=C/c2cccs2)cc1S(=O)(=O)NC(=O)NC [Example 11, 1-[5-(2-(trans-3-(2-Thienyl)acryloylamino)ethyl)-2-(2-ethoxyethoxy)phenylsulfonyl]-3-methyl-urea] | 65 | – | – | –
14 | COc1ccc(CCNC(=O)/C=C/c2cccs2)cc1S(=O)(=O)NC(=S)NC(C)C [Example 5, 1-[5-(2-(trans-3-(2-Thienyl)acryloylamino)ethyl)-2-methoxyphenyisulfonyl]-3-isopropyl-thiourea] | 96 | – | – | –
15 | CNC(=O)NS(=O)(=O)c1cc(CCNC(=O)/C=C/c2cccs2)ccc1OC [Example 3, 1-[5-(2-(trans-3-(2-Thienyl)acryloylamino)ethyl)-2-methoxyphenylsulfonyl]-3-methyl-urea] | – | 1.7 | – | 65
